# Measured values reported in patent US20240409585A1, “MACROCYCLIC IMMUNOMODULATORS” (priority 2021, published 2024).
# Bridge positions count the residues as written; N and C are the ends. Square brackets hold non-standard residues; d marks the D form. Peptide text beside a SMILES is read from it. Bip = N[C@@H](Cc1ccc(-c2ccccc2)cc1)C(=O)O; Phe(3-OMe) = COc1cccc(C[C@H](N)C(=O)O)c1; Phe(3-Me) = Cc1cccc(C[C@H](N)C(=O)O)c1; Cit = NC(=O)NCCC[C@H](N)C(=O)O; NMeA = CN[C@@H](C)C(=O)O; Orn = NCCC[C@H](N)C(=O)O; Dab = NCC[C@H](N)C(=O)O
# Molecular target: T1, PE-labeled human PD-L1-Ig binding to Jurkat cell line over-expressing human PD-1 (Jurkat-PD-1) (Homo sapiens, UniProt Q15116)
# T1 construct: expressed in transfected cells; host or cells: Jurkat
# Assay: Jurkat-PD-1 Cell Binding High-Content Screening Assay (CBA): Method 1
# Details: Jurkat-hPD-1 cells, PE-labeled PD-L1-Ig 20 nM final; read-out: Jurkat HPDL1 PD1 IC50 (uM) (Method 1)
# T1 sequence (Q15116 25-288): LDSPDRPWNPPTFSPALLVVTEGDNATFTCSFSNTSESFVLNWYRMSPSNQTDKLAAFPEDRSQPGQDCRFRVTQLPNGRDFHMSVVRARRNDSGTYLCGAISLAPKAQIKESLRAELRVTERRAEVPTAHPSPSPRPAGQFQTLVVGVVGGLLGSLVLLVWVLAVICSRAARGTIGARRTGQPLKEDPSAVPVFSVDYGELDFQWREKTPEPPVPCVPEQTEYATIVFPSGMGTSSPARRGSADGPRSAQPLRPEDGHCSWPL
row,IC50,Compound
1,0.01 µM,Cc1cccc(C[C@@H]2NC(=O)[C@H](CC(=O)O)NC(=O)[C@H](Cc3ccc(O)cc3)NC(=O)[C@H](CC(N)=O)NC(=O)CSC[C@@H](C(=O)N[C@@H](C)C(N)=O)NC(=O)[C@H]([C@@H](C)O)NC(=O)[C@H](C(C)C)NC(=O)[C@H](CC(C)C)NC(=O)[C@H](CCN)NC(=O)[C@@H](CC(C)C)NC(=O)[C@H](C)N(C)C(=O)[C@H](CCCNC(N)=O)NC(=O)[C@H](Cc3ccc(-c4ccccc4)cc3)NC(=O)[C@H](C(C)C)NC2=O)c1 [Compound 1230] ({CH2CO}-NYD[Phe(3-Me)]V[Bip][Cit][NMeA][dL][Dab]LVTCA-NH2; thioether N-14)
2,0.04 µM,COc1cccc(C[C@@H]2NC(=O)[C@H](CC(=O)O)NC(=O)[C@H](Cc3ccc(O)cc3)NC(=O)[C@H](CC(N)=O)NC(=O)CSC[C@@H](C(=O)N[C@@H](C)C(N)=O)NC(=O)[C@H]([C@@H](C)O)NC(=O)[C@H](C(C)C)NC(=O)[C@H](CC(C)C)NC(=O)[C@H](CCN)NC(=O)[C@@H](CC(C)C)NC(=O)[C@H](C)N(C)C(=O)[C@H](CCCNC(N)=O)NC(=O)[C@H](Cc3ccc(-c4ccccc4)cc3)NC(=O)[C@H](C(C)C)NC2=O)c1 [Compound 1231] ({CH2CO}-NYD[Phe(3-OMe)]V[Bip][Cit][NMeA][dL][Dab]LVTCA-NH2; thioether N-14)
3,0.12 µM,CC(C)C[C@@H]1NC(=O)[C@H](CCN)NC(=O)[C@@H](CC(C)C)NC(=O)[C@H](C)N(C)C(=O)[C@H](CCCNC(N)=O)NC(=O)[C@H](Cc2ccc(-c3ccccc3)cc2)NC(=O)[C@H](C(C)C)NC(=O)[C@H](Cc2c[nH]c3ccccc23)NC(=O)[C@H](CC(=O)O)NC(=O)[C@H](Cc2ccc(O)cc2)NC(=O)[C@H](CC(N)=O)NC(=O)CSC[C@@H](C(=O)N[C@@H](C)C(N)=O)NC(=O)[C@H](CCCN)NC(=O)[C@H](C(C)C)NC1=O [Compound 1232] ({CH2CO}-NYDWV[Bip][Cit][NMeA][dL][Dab]LV[Orn]CA-NH2; thioether N-14)
4,0.05 µM,CC(C)C[C@@H]1NC(=O)[C@H](CCN)NC(=O)[C@@H](CC(C)C)NC(=O)[C@H](C)N(C)C(=O)[C@H](CCCNC(N)=O)NC(=O)[C@H](Cc2ccc(-c3ccccc3)cc2)NC(=O)[C@H](C(C)C)NC(=O)[C@H](Cc2c[nH]c3ccccc23)NC(=O)[C@H](CC(=O)O)NC(=O)[C@H](Cc2ccc(O)cc2)NC(=O)[C@H](CC(N)=O)NC(=O)CSC[C@@H](C(=O)N[C@@H](CCC(=O)O)C(N)=O)NC(=O)[C@H](CO)NC(=O)[C@H](C(C)C)NC1=O [Compound 1233] ({CH2CO}-NYDWV[Bip][Cit][NMeA][dL][Dab]LVSCE-NH2; thioether N-14)
5,0.03 µM,CC(C)C[C@@H]1NC(=O)[C@H](CCCN)NC(=O)[C@@H](CC(C)C)NC(=O)[C@H](C)N(C)C(=O)[C@H](CCCNC(N)=O)NC(=O)[C@H](Cc2ccc(-c3ccccc3)cc2)NC(=O)[C@H](C(C)C)NC(=O)[C@H](Cc2c[nH]c3ccccc23)NC(=O)[C@H](CC(=O)O)NC(=O)[C@H](Cc2ccc(O)cc2)NC(=O)[C@H](CC(N)=O)NC(=O)CSC[C@@H](C(=O)N[C@@H](C)C(N)=O)NC(=O)[C@H]([C@@H](C)O)NC(=O)[C@H](C(C)C)NC1=O [Compound 1234] ({CH2CO}-NYDWV[Bip][Cit][NMeA][dL][Orn]LVTCA-NH2; thioether N-14)
6,0.06 µM,CC(C)C[C@@H]1NC(=O)[C@H](CCCN)NC(=O)[C@@H](CC(C)C)NC(=O)[C@H](C)N(C)C(=O)[C@H](CCCNC(N)=O)NC(=O)[C@H](Cc2ccc(-c3ccccc3)cc2)NC(=O)[C@H](C(C)C)NC(=O)[C@H](Cc2c[nH]c3ccccc23)NC(=O)[C@H](CC(=O)O)NC(=O)[C@H](Cc2ccc(O)cc2)NC(=O)[C@H](CC(N)=O)NC(=O)CSC[C@@H](C(=O)NCC(N)=O)NC(=O)[C@H]([C@@H](C)O)NC(=O)[C@H](C(C)C)NC1=O [Compound 1235] ({CH2CO}-NYDWV[Bip][Cit][NMeA][dL][Orn]LVTCG-NH2; thioether N-14)
7,0.11 µM,CC(C)C[C@@H]1NC(=O)[C@H](CCCNC(=N)N)NC(=O)[C@@H](CC(C)C)NC(=O)[C@H](C)N(C)C(=O)[C@H](CCCNC(N)=O)NC(=O)[C@H](Cc2ccc(-c3ccccc3)cc2)NC(=O)[C@H](C(C)C)NC(=O)[C@H](Cc2c[nH]c3ccccc23)NC(=O)[C@H](CC(=O)O)NC(=O)[C@H](Cc2ccc(O)cc2)NC(=O)[C@H](CC(N)=O)NC(=O)CSC[C@@H](C(=O)N[C@@H](CCC(=O)O)C(N)=O)NC(=O)[C@H](CO)NC(=O)[C@H](C(C)C)NC1=O [Compound 1236] ({CH2CO}-NYDWV[Bip][Cit][NMeA][dL]RLVSCE-NH2; thioether N-14)
8,0.03 µM,CC(C)C[C@@H]1NC(=O)[C@H](CCN)NC(=O)[C@@H](CC(C)C)NC(=O)[C@H](C)N(C)C(=O)[C@H](CCCNC(N)=O)NC(=O)[C@H](Cc2ccc(-c3ccccc3)cc2)NC(=O)[C@H](C(C)C)NC(=O)[C@H](Cc2c[nH]c3ccccc23)NC(=O)[C@H](CC(=O)O)NC(=O)[C@H](Cc2ccc(O)cc2)NC(=O)[C@H](CC(N)=O)NC(=O)CSC[C@@H](C(=O)N[C@@H](C)C(N)=O)NC(=O)[C@H](CO)NC(=O)[C@H](C(C)C)NC1=O [Compound 1237] ({CH2CO}-NYDWV[Bip][Cit][NMeA][dL][Dab]LVSCA-NH2; thioether N-14)
9,0.03 µM,CC(C)C[C@@H]1NC(=O)[C@H](CCN)NC(=O)[C@@H](CC(C)C)NC(=O)[C@H](C)N(C)C(=O)[C@H](CCC(=O)O)NC(=O)[C@H](Cc2ccc(-c3ccccc3)cc2)NC(=O)[C@H](C(C)C)NC(=O)[C@H](Cc2c[nH]c3ccccc23)NC(=O)[C@H](CC(=O)O)NC(=O)[C@H](Cc2ccc(O)cc2)NC(=O)[C@H](CC(N)=O)NC(=O)CSC[C@@H](C(=O)N[C@@H](C)C(N)=O)NC(=O)[C@H](CCCN)NC(=O)[C@H](C(C)C)NC1=O [Compound 1238] ({CH2CO}-NYDWV[Bip]E[NMeA][dL][Dab]LV[Orn]CA-NH2; thioether N-14)
10,0.08 µM,CC(C)C[C@@H]1NC(=O)[C@H](CCCN)NC(=O)[C@@H](CC(C)C)NC(=O)[C@H](C)N(C)C(=O)[C@H](CCC(=O)O)NC(=O)[C@H](Cc2ccc(-c3ccccc3)cc2)NC(=O)[C@H](C(C)C)NC(=O)[C@H](Cc2c[nH]c3ccccc23)NC(=O)[C@H](CC(=O)O)NC(=O)[C@H](Cc2ccc(O)cc2)NC(=O)[C@H](CC(N)=O)NC(=O)CSC[C@@H](C(=O)N[C@@H](C)C(N)=O)NC(=O)[C@H]([C@@H](C)O)NC(=O)[C@H](C(C)C)NC1=O [Compound 1239] ({CH2CO}-NYDWV[Bip]E[NMeA][dL][Orn]LVTCA-NH2; thioether N-14)
11,0.04 µM,CC(C)C[C@@H]1NC(=O)[C@H](CCCN)NC(=O)[C@@H](CC(C)C)NC(=O)[C@H](C)N(C)C(=O)[C@H](CCC(=O)O)NC(=O)[C@H](Cc2ccc(-c3ccccc3)cc2)NC(=O)[C@H](C(C)C)NC(=O)[C@H](Cc2c[nH]c3ccccc23)NC(=O)[C@H](CC(=O)O)NC(=O)[C@H](Cc2ccc(O)cc2)NC(=O)[C@H](CC(N)=O)NC(=O)CSC[C@@H](C(=O)N[C@@H](C)C(N)=O)NC(=O)[C@H](CO)NC(=O)[C@H](C(C)C)NC1=O [Compound 1240] ({CH2CO}-NYDWV[Bip]E[NMeA][dL][Orn]LVSCA-NH2; thioether N-14)
12,0.02 µM,CC(C)C[C@@H]1NC(=O)[C@H](CCCN)NC(=O)[C@@H](CC(C)C)NC(=O)[C@H](C)N(C)C(=O)[C@H](CCCN)NC(=O)[C@H](Cc2ccc(-c3ccccc3)cc2)NC(=O)[C@H](C(C)C)NC(=O)[C@H](Cc2c[nH]c3ccccc23)NC(=O)[C@H](CC(=O)O)NC(=O)[C@H](Cc2ccc(O)cc2)NC(=O)[C@H](CC(N)=O)NC(=O)CSC[C@@H](C(=O)N[C@@H](C)C(N)=O)NC(=O)[C@H]([C@@H](C)O)NC(=O)[C@H](C(C)C)NC1=O [Compound 1241] ({CH2CO}-NYDWV[Bip][Orn][NMeA][dL][Orn]LVTCA-NH2; thioether N-14)
13,0.09 µM,CC(C)C[C@@H]1NC(=O)[C@H](CCN)NC(=O)[C@@H](CC(C)C)NC(=O)[C@H](C)N(C)C(=O)[C@H](CCCNC(=N)N)NC(=O)[C@H](Cc2ccc(-c3ccccc3)cc2)NC(=O)[C@H](C(C)C)NC(=O)[C@H](Cc2c[nH]c3ccccc23)NC(=O)[C@H](CC(=O)O)NC(=O)[C@H](Cc2ccc(O)cc2)NC(=O)[C@H](CC(N)=O)NC(=O)CSC[C@@H](C(=O)N[C@@H](C)C(N)=O)NC(=O)[C@H](CCCN)NC(=O)[C@H](C(C)C)NC1=O [Compound 1242] ({CH2CO}-NYDWV[Bip]R[NMeA][dL][Dab]LV[Orn]CA-NH2; thioether N-14)
14,0.01 µM,CC(C)C[C@@H]1NC(=O)[C@H](CCCN)NC(=O)[C@@H](CC(C)C)NC(=O)[C@H](C)N(C)C(=O)[C@H](C(C)C)NC(=O)[C@H](Cc2ccc(-c3ccccc3)cc2)NC(=O)[C@H](C(C)C)NC(=O)[C@H](Cc2c[nH]c3ccccc23)NC(=O)[C@H](CC(=O)O)NC(=O)[C@H](Cc2ccc(O)cc2)NC(=O)[C@H](CC(N)=O)NC(=O)CSC[C@@H](C(=O)N[C@@H](C)C(N)=O)NC(=O)[C@H]([C@@H](C)O)NC(=O)[C@H](C(C)C)NC1=O [Compound 1243] ({CH2CO}-NYDWV[Bip]V[NMeA][dL][Orn]LVTCA-NH2; thioether N-14)
15,0.04 µM,CC(C)C[C@@H]1NC(=O)[C@H](CCCNC(=N)N)NC(=O)[C@@H](CC(C)C)NC(=O)[C@H](C)N(C)C(=O)[C@H](CCCNC(=N)N)NC(=O)[C@H](Cc2ccc(-c3ccccc3)cc2)NC(=O)[C@H](C(C)C)NC(=O)[C@H](Cc2c[nH]c3ccccc23)NC(=O)[C@H](CC(=O)O)NC(=O)[C@H](Cc2ccc(O)cc2)NC(=O)[C@H](CC(N)=O)NC(=O)CSC[C@@H](C(=O)NCC(N)=O)NC(=O)[C@H]([C@@H](C)O)NC(=O)[C@H](C(C)C)NC1=O [Compound 1244] ({CH2CO}-NYDWV[Bip]R[NMeA][dL]RLVTCG-NH2; thioether N-14)
16,0.1 µM,CC(C)C[C@@H]1NC(=O)[C@H](CC(N)=O)NC(=O)[C@@H](CC(C)C)NC(=O)[C@H](C)N(C)C(=O)[C@H](CCCNC(=N)N)NC(=O)[C@H](Cc2ccc(-c3ccccc3)cc2)NC(=O)[C@H](C(C)C)NC(=O)[C@H](Cc2c[nH]c3ccccc23)NC(=O)[C@H](CC(=O)O)NC(=O)[C@H](Cc2ccc(O)cc2)NC(=O)[C@H](CC(N)=O)NC(=O)CSC[C@@H](C(=O)N[C@@H](C)C(N)=O)NC(=O)[C@H]([C@@H](C)O)NC(=O)[C@H](C(C)C)NC1=O [Compound 1245] ({CH2CO}-NYDWV[Bip]R[NMeA][dL]NLVTCA-NH2; thioether N-14)
